PubChem BioAssay (NCI)
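Compound exposure: 48 hours, 5 concentrations, 96-well plates. Abbreviation: GI50, concentration required for 50% inhibition of growth. TGI: total growth inhibition.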

Columns and labels:
Test in all cases: NCI tumour cell line growth inhibition, 48 h
[1] = system: SNB-19 CNS
[2] = system: SK-MEL-2 melanoma
[3] = system: RPMI-8226 leukemia
[4] = system: CAKI-1 renal
[5] = system: NCI-H522 lung
[6] = system: SK-MEL-28 melanoma
[7] = system: A549 NSCLC
[8] = system: UO-31 renal
[9] = system: SN12C renal
[10] = system: SR leukemia

Row | SMILES | GI50 [1] [µM] | TGI [1] [µM] | GI50 [2] [µM] | TGI [2] [µM] | GI50 [3] [µM] | TGI [3] [µM] | GI50 [4] [µM] | TGI [4] [µM] | GI50 [5] [µM] | TGI [5] [µM] | GI50 [6] [µM] | TGI [6] [µM] | GI50 [7] [µM] | TGI [7] [µM] | GI50 [8] [µM] | TGI [8] [µM] | GI50 [9] [µM] | TGI [9] [µM] | GI50 [10] [µM] | TGI [10] [µM]
1 | COC(=O)c1ccc(NC(=O)c2ccc(NC3=C(Cl)C(=O)N(Cc4ccccc4)C3=O)cc2)cc1 | 16.5 | 30.4 | 17.3 | 42.2 | 3.74 | 16.3 | 2.49 | 6.4 | 13.1 | 33.1 | 23.6 | 47.3 | 15.8 | 29.2 | 17.9 | 31.7 | 8.13 | 21.7 | – | –
2 | C(=C\c1ccncc1)/c1ccncc1 | > 100 | > 100 | > 100 | > 100 | – | – | > 100 | > 100 | – | – | > 100 | > 100 | > 100 | > 100 | 50.5 | > 100 | > 100 | > 100 | > 100 | > 100
3 | COc1cc2c3c(n(CCN4CCOCC4)c(=O)c2cc1OC)-c1ccccc1C3=O | > 100 | > 100 | > 100 | > 100 | 81 | > 100 | 32.9 | 72.9 | 21.2 | > 100 | > 100 | > 100 | > 100 | > 100 | 63.3 | > 100 | > 100 | > 100 | – | –
4 | CN(C)CC1C(=O)O[C@H]2[C@H]1CC/C(COC(=O)NCc1ccc(Cn3c(=O)sn(CCCI)c3=O)cc1)=C\CC[C@@]1(C)O[C@@H]21 (stereo not given in full) | 7.26 | 14.2 | 6.31 | 13.8 | 1.75 | 6.88 | 0.886 | 1.95 | 0.742 | 1.68 | 0.92 | 1.82 | 7.17 | 14.4 | 0.775 | 1.52 | 0.958 | 2.12 | – | –
5 | O=c1cc(-c2ccccc2)oc2cc(OCCCCCN3CCOCC3)cc(O)c12 | 23.9 | 71.6 | 25.4 | 91.7 | 62.3 | > 100 | – | – | 31 | 94.9 | > 100 | > 100 | > 100 | > 100 | 32.7 | > 100 | > 100 | > 100 | – | –
6 | COc1cccc2c(SCC(=O)Nc3ccccc3-c3ccccc3NC(=O)CSc3c4ccccc4nc4c(OC)cccc34)c3ccccc3nc12 | – | > 100 | – | > 100 | – | – | – | – | – | – | – | > 100 | – | > 100 | – | – | – | > 100 | – | > 100
7 | COc1cc([C@@H]2OC(=O)C3C2C(=O)O[C@H]3c2ccc(O)c(OC)c2)ccc1O (stereo not given in full) | – | > 100 | – | – | – | > 100 | – | > 100 | – | – | – | > 100 | – | > 100 | – | > 100 | – | > 100 | – | > 100
8 | CCn1cc(C(=O)N/N=C/c2cccs2)c(=O)c2cc(F)c(N3CCNC(C)C3)c(F)c21 (stereo not given) | 1.61 | 2.96 | 1.96 | 3.95 | – | – | 1.66 | 3.03 | – | – | – | – | 1.8 | 3.37 | 1.52 | 2.96 | 1.55 | 2.88 | – | –
9 | CC(=O)[CH-]C(=O)c1ccccc1.CC(=O)[CH-]C(=O)c1ccccc1.CC[C@H](/C=C/C(C)[C@H]1CCC2[C@@H]3CC=C4C[C@@H]([O-])CC[C@]4(C)C3CC[C@@]21C)C(C)C.CC[C@H](/C=C/C(C)[C@H]1CCC2[C@@H]3CC=C4C[C@@H]([O-])CC[C@]4(C)C3CC[C@@]21C)C(C)C.Cl.[Ti+4] (stereo not given in full) | > 25 | > 25 | > 25 | > 25 | > 25 | > 25 | > 25 | > 25 | > 25 | > 25 | 6.08 | > 25 | > 25 | > 25 | > 25 | > 25 | > 25 | > 25 | – | –
10 | Cc1cc(Cl)nc(N(CCCNc2ccnc3cc(Cl)ccc23)Cc2cccs2)n1 | 2.35 | 13.5 | 2.29 | 6.54 | 0.83 | 3.84 | – | – | 1.31 | 4.31 | 1.79 | 5.78 | 2.96 | 12.5 | 0.456 | 3.71 | 1.4 | 12.5 | – | –
11 | CN(C)N=Nc1cccc(C(N)=O)c1 | – | > 100 | – | > 100 | – | > 100 | – | > 100 | – | – | – | > 100 | – | > 100 | – | > 100 | – | > 100 | – | > 100
12 | COc1cc2c3c(n([C@@H]4CCOC4)c(=O)c2cc1OC)-c1cc2c(cc1C3=O)OCO2 | < 0.01 | > 100 | – | – | 0.0127 | > 100 | – | – | < 0.01 | > 100 | – | – | 0.0107 | > 100 | < 0.01 | > 100 | < 0.01 | > 100 | – | –
13 | O=C1NC2C3CC(OCc4ccccc4)(OCc4ccccc4)C2OC3O1 (stereo not given) | – | – | – | > 50 | – | > 50 | – | > 50 | – | – | – | > 50 | – | > 50 | – | > 50 | – | > 50 | – | –
14 | Nn1c(-c2cccc(Cl)c2)nc2ccccc2c1=O | – | > 100 | – | > 100 | – | > 100 | – | > 100 | – | > 100 | – | > 100 | – | > 100 | – | > 100 | – | > 100 | – | –
15 | COC(=O)c1ccc(C(=O)OC)c2nc3cc(Cl)ccc3nc12 | – | > 100 | – | > 100 | – | > 100 | – | > 100 | – | > 100 | – | > 100 | – | > 100 | – | > 100 | – | > 100 | – | –
16 | O=C1c2ccn(CCCNC(CO)(CO)CO)c2C(=O)c2c1c(O)c1ccccc1c2O | 36.3 | > 100 | 23.1 | 68.8 | 22.3 | > 69.7 | 16.4 | 47.1 | 12.9 | 46.6 | 51.3 | > 100 | 16.9 | 36.8 | 13.4 | 30.3 | 3.16 | 17.9 | – | –
